Columns and labels:
[1] = system: Plasmodium falciparum; assay: Antimalarial activity against Plasmodium falciparum 3D7 assessed as reduction in parasitic growth; assay type: functional, organism-based
[2] = system: BJ; assay: Cytotoxicity against human BJ cells assessed as reduction in cell viability; assay type: cell-based
[3] = system: Plasmodium falciparum; assay: Antimalarial activity against Plasmodium falciparum 3D7 assessed as reduction in parasitic growth at 16 uM relative to control; assay type: functional; set-up: scale not given: the % may be the effect or the level left
[4] = system: BJ; assay: Cytotoxicity against human BJ cells assessed as reduction in cell viability at 58 uM by relative to control; assay type: cell-based

SMILES | EC50 [1] [µM] | EC50 [2] [µM] | Activity [3] [%] | Activity [4] [%]
Cc1c(C(=O)Nc2ccc3ccc(=O)oc3c2)nnn1-c1ccc2noc(-c3ccccc3)c2c1 | 15.7 | > 24 | – | –
Cc1nnc(-c2nn(-c3ccc(C(=O)N4CCC[C@H](C)C4)cc3)c(-c3ccc(F)cc3)c2C)o1 | 5.5 | > 24 | – | –
O=C(c1cccc(S(=O)(=O)N2CCc3ccccc32)c1)N1CCC(c2nnc3ccccn23)CC1 | > 18 | > 24 | – | –
O=C(c1cccc(Nc2nc3ccccc3n3nnnc23)c1)N1CCc2ccccc2C1 | 3.44 | > 24 | – | –
O=C(N[C@H]1CCc2ccccc21)C1CCN(c2ncccc2-c2nc(-c3ccccc3)no2)CC1 | 1.11 | > 24 | – | –
O=C(NCc1ccc2c(c1)OCO2)C1CCN(c2ncnc3onc(-c4cccc(F)c4)c23)CC1 | 0.98 | > 24 | – | –
O=C(c1ccc2noc(-c3ccccc3)c2c1)N1CCC[C@H](c2nnc3ccccn23)C1 | > 18 | > 24 | – | –
O=C(CCn1c(=O)c2ccccc2n(Cc2ccccc2F)c1=O)N1CCc2ccccc2C1 | > 18 | > 24 | – | –
Cc1cccc(-c2nc(C3CCN(C(=O)[C@H]4CC(=O)N(c5ccc(C)c(C)c5)C4)CC3)no2)c1 | 12.1 | > 24 | – | –
O=C1CN(C(=O)CN2C[C@H](C(=O)N3CCCCC3)Oc3ccccc32)c2ccccc2N1 | > 18 | > 24 | – | –
O=C(Cc1ccc2c(c1)OCO2)N1CCC(c2nc(=O)c3nnn(Cc4ccccc4F)c3[nH]2)CC1 | 12.7 | > 24 | – | –
c1ccc(-c2nnn3c2nc(N2CCN(Cc4ccc5c(c4)OCO5)CC2)c2ccccc23)cc1 | 17 | > 24 | – | –
O[C@@H](c1cc(C(F)(F)F)nc2c(C(F)(F)F)cccc12)[C@H]1CCCCN1 [(S,R)-MEFLOQUINE] | – | – | 100 | –
CC(=O)[C@]1(O)Cc2c(O)c3c(c(O)c2[C@@H](O[C@H]2C[C@H](N)[C@H](O)[C@H](C)O2)C1)C(=O)c1ccccc1C3=O [IDARUBICIN] | – | – | – | 100

From ChEMBL document CHEMBL4715909, “Identification of Plasmodium falciparum heat shock 90 inhibitors via molecular docking” (Bioorg Med Chem Lett, 2021)
